Measured values published in PubChem BioAssay AID1208 (EPA DSSTox, 2008).
Activity calls are given as the source filed them.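 How the source made its calls: active means at least one rat sex group has a carcinogenic potency value and tumor site recorded; inconclusive means only rat studies were judged inadequate by the national testing program; inactive means no potency or tumor site, with negative rat experiments.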

tested on: rat chronic carcinogenicity bioassay, TD50; assay: DSSTox (CPDBAS) Carcinogenic Potency Database Summary Rat Bioassay Results; conditions: TD50_Rat_Note: TD50 is harmonic mean of more than one positive test; TD50_Rat_mmol was not calculated for this mixture, but Activiity S; TargetSites_Rat_Female: liver; thyroid gland; stronger effect = lower value
In short: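 Chronic long-term rat cancer bioassays from literature and NCI/NTP, taking the most positive result per sex. TD50 in mmol converted to a 1–100 Activity Score from log10(1/TD50). Mixtures lacking TD50 scored 50.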

Row | Compound | Potency [mg/kg/day]
1 | CCC(Cl)CCC(Cl)C(Cl)CC(Cl)C(Cl)C(Cl)CCl (stereo unspecified) | 222

same assay, conditions: TD50_Rat_Note: TD50 is harmonic mean of more than one positive test; TargetSites_Rat_Female: adrenal gland; stronger effect = lower value

Row | Compound | Potency [mg/kg/day]
2 | COc1cc(S(C)=O)ccc1-c1nc2ccncc2[nH]1 (stereo unspecified) | 70.5

same assay, conditions: TD50_Rat_Note: TD50 is harmonic mean of more than one positive test; TargetSites_Rat_Female: esophagus; stronger effect = lower value

Row | Compound | Potency [mg/kg/day]
3 | O=NN1CCCCC1c1cccnc1 (stereo unspecified) | 11.9

same assay, conditions: TD50_Rat_Note: TD50 is harmonic mean of more than one positive test; TargetSites_Rat_Female: kidney; liver; stronger effect = lower value

Row | Compound | Potency [mg/kg/day]
4 | O=NN(CCO)C(=O)NCCCl | 0.356

same assay, conditions: TD50_Rat_Note: TD50 is harmonic mean of more than one positive test; TargetSites_Rat_Female: liver; stronger effect = lower value

Row | Compound | Potency [mg/kg/day]
5 | CC(O)CN(N=O)C(=O)NCCCl (stereo unspecified) | 0.873
6 | CN(C)CCN(Cc1cccs1)c1ccccn1 | 9.13
7 | Cc1ccc2c(c1[N+](=O)[O-])C(=O)c1ccccc1C2=O | 84.8

same assay, conditions: TD50_Rat_Note: TD50 is harmonic mean of more than one positive test; TargetSites_Rat_Female: liver; lung; stronger effect = lower value

Row | Compound | Potency [mg/kg/day]
8 | O=NN(CCCC(F)(F)F)CCCC(F)(F)F | 0.748

same assay, conditions: TD50_Rat_Note: TD50 is harmonic mean of more than one positive test; TargetSites_Rat_Female: liver; lung; mammary gland; stronger effect = lower value

Row | Compound | Potency [mg/kg/day]
9 | Nc1ccc(Cc2ccc(N)c(Cl)c2)cc1Cl | 19.3

same assay, conditions: TD50_Rat_Note: TD50 is harmonic mean of more than one positive test; TargetSites_Rat_Female: lung; stronger effect = lower value

Row | Compound | Potency [mg/kg/day]
10 | O=S(=O)([O-])[O-].[Cd+2] | 0.0217

same assay, conditions: TD50_Rat_Note: TD50 is harmonic mean of more than one positive test; TargetSites_Rat_Female: stomach; stronger effect = lower value

Row | Compound | Potency [mg/kg/day]
11 | O=C(O)/C=C/c1ccc(O)c(O)c1 | 297
12 | Cn1nc(CO)nc1NCCCOc1cccc(CN2CCCCC2)c1 | 479

same assay, conditions: TD50_Rat_Note: TD50 is harmonic mean of more than one positive test; TargetSites_Rat_Female: uterus; stronger effect = lower value

Row | Compound | Potency [mg/kg/day]
13 | FC(F)(F)CCl | 87.3

same assay, conditions: TD50_Rat_Note: TD50 is harmonic mean of more than one positive test; greater than ten-fold variation among TD50 values for positive res; TargetSites_Rat_Female: liver; mammary gland; nasal cavity; stronger effect = lower value

Row | Compound | Potency [mg/kg/day]
14 | C1COCCO1 | 267

same assay, conditions: TD50_Rat_Note: TD50 is harmonic mean of more than one positive test; greater than ten-fold variation among TD50 values for positive res; TargetSites_Rat_Female: lung; stronger effect = lower value

Row | Compound | Potency [mg/kg/day]
15 | [Cd+2].[Cl-].[Cl-] | 0.0136

same assay, conditions: TD50_Rat_Note: TD50 is harmonic mean of more than one positive test; greater than ten-fold variation among TD50 values for positive res; TargetSites_Rat_Female: mammary gland; stronger effect = lower value

Row | Compound | Potency [mg/kg/day]
16 | NC(=O)/C(=C\c1ccc([N+](=O)[O-])o1)c1ccco1 | 29.4

same assay, conditions: TD50_Rat_Note: TD50 is harmonic mean of more than one positive test; harmonic mean of TD50 includes a value for upper 99% confidence li; TargetSites_Rat_Female: urinary bladder; stronger effect = lower value

Row | Compound | Potency [mg/kg/day]
17 | O=CNc1nc(-c2ccc([N+](=O)[O-])o2)cs1 | 4.25

same assay, conditions: TD50_Rat_Note: no positive results

Row | Compound | outcome
18 | Nc1ccc(Cc2ccc(N)c(Cl)c2)cc1Cl | inactive; no positive results
19 | CCCC[N+](=O)[O-] | inactive; no positive results
20 | c1ccc2c(c1)[nH]c1cnccc12 | inactive; no positive results
21 | CC1=C(/C=C/C(C)=C/C=C/C(C)=C/C=C/C=C(C)/C=C/C=C(C)/C=C/C2=C(C)CCCC2(C)C)C(C)(C)CCC1 | inactive; no positive results
22 | CN=C(N)N | inactive; no positive results
23 | O.O.O.O.O.O.O.O.O=S(=O)([O-])[O-].O=S(=O)([O-])[O-].O=S(=O)([O-])[O-].[Cd+2].[Cd+2].[Cd+2] | inactive; no positive results
24 | COc1cc(/C=C/C(=O)CC(=O)/C=C/c2ccc(O)c(OC)c2)ccc1O | inactive; no positive results
25 | NC1=NCN([C@@H]2O[C@H](CO)[C@@H](O)[C@H]2O)C(=O)N1 | inactive; no positive results
26 | CCOC(=O)/C=C\C(=O)OCC | inactive; no positive results

same assay, conditions: TD50_Rat_Note: no positive results; TargetSites_Rat_BothSexes: no positive results

Row | Compound | outcome
27 | COC(=O)[C@H]1[C@H]2C[C@@H]3c4[nH]c5ccccc5c4CCN3C[C@H]2C[C@@H](OC(=O)c2cc(OC)c(OC)c(OC)c2)[C@@H]1OC | inactive
28 | O=[As]O | inactive

same assay, conditions: TD50_Rat_Note: no positive results; TargetSites_Rat_Female: no positive results

Row | Compound | outcome
29 | COc1ccc(C(c2ccc(OC)cc2)C(Cl)(Cl)Cl)cc1 | inactive; no positive results
30 | ClC1=C(Cl)[C@]2(Cl)[C@@H]3[C@@H]4C[C@@H]([C@H]5O[C@@H]45)[C@@H]3[C@@]1(Cl)C2(Cl)Cl | inactive; no positive results
31 | O=[N+]([O-])c1c(Cl)c(Cl)c(Cl)c(Cl)c1Cl | inactive; no positive results
32 | Brc1cc(Br)c2cccnc2c1 | inactive; no positive results
33 | Nc1ccc(-c2ccccc2)cc1O | inactive
34 | COC(=O)C1=C(C)NC(C)=C(C(=O)OCCc2ccc(N3CCN(C(c4ccccc4)c4ccccc4)CC3)cc2)C1c1cccc([N+](=O)[O-])c1 (stereo unspecified) | inactive; no positive results
35 | O=c1ccc(=O)[nH][nH]1 | inactive; no positive results
36 | O=NN(CC(=O)O)CC(=O)O | inactive; no positive results
37 | c1ccc2n[nH]nc2c1 | inactive; no positive results
38 | O=C(O)c1ccc(N=Nc2ccc(O)c(C(=O)O)c2)cc1 | inactive; no positive results
39 | Cc1[nH]cnc1CSCCN=C(NC#N)N(C)N=O | inactive; no positive results
40 | CCOC(=O)CC(SP(=O)(OC)OC)C(=O)OCC (stereo unspecified) | inactive; no positive results
41 | CCc1ccc(C(c2ccc(CC)cc2)C(Cl)Cl)cc1 | inactive; no positive results
42 | COC(=O)C1=C(C)NC(C)=C(C(=O)OCC(C)(C)CN(C)Cc2ccccc2)C1c1cc([N+](=O)[O-])ccc1F (stereo unspecified) | inactive; no positive results
43 | CCN=c1cc2oc3cc(NCC)c(C)cc3c(-c3ccccc3C(=O)OCC)c-2cc1C | inactive; no positive results
44 | C=C(C)C(=O)OC | inactive; no positive results
45 | CCC(O)OC(O)CC (stereo unspecified) | inactive; no positive results
46 | CC(C)NCC(O)COc1ccc(CC(N)=O)cc1 (stereo unspecified) | inactive; no positive results
47 | NC(=O)CCCCC(N)=O | inactive; no positive results
48 | CC(O)COC(C)(C)C (stereo unspecified) | inactive; no positive results
49 | Cc1cc(C(C)(C)C)c(O)c(C(C)(C)C)c1 | inactive; no positive results
50 | Nc1ccc([N+](=O)[O-])cc1N | inactive; no positive results
51 | COc1ccc2c3c1O[C@H]1[C@@H](O)C=C[C@H]4[C@@H](C2)N(C)CC[C@@]341 | inactive; no positive results

Row | Compound | outcome
52 | O=NN1CCCCC1C(=O)O (stereo unspecified) | inactive; no positive results
53 | C[C@]12CC[C@@H]3c4ccc(OC(=O)Cc5ccc(N(CCCl)CCCl)cc5)cc4CC[C@H]3[C@@H]1CC[C@@H]2OC(=O)Cc1ccc(N(CCCl)CCCl)cc1 | inactive; no positive results
54 | C/C=C/c1ccc(OC)cc1 | inactive; no positive results
55 | O=C(CCl)c1ccccc1 | inactive; no positive results
56 | Clc1ccc2c(c1)C(c1ccccc1)=NCc1nncn1-2 | inactive; no positive results
57 | CCCCNC(=O)NS(=O)(=O)c1ccc(C)cc1 | inactive; no positive results
58 | CN(C)CCOc1ccc(/C(=C(/CCCl)c2ccccc2)c2ccccc2)cc1 | inactive; no positive results
59 | CCCCCCc1ccc(O)cc1O | inactive; no positive results
60 | F | inactive; no positive results
61 | CCCCCC | inactive; no positive results
62 | CC(=O)OC1CC(C)OC(C)O1 (stereo unspecified) | inactive; no positive results
63 | C[C@@H]1CCC[C@H](C)N1CCCC(O)(c1ccccc1)c1ccccn1 (stereo partly specified) | inactive; no positive results
64 | C=CCOC(=O)c1ccccc1C(=O)OCC=C | inactive; no positive results
65 | CN(C)CCN(Cc1ccsc1)c1ccccn1 | inactive; no positive results
66 | Cc1c(N)cccc1N | inactive; no positive results
67 | CCCCCCCCCc1ccc(OCCOCCO)cc1 | inactive
68 | CCC1(c2ccccc2)C(=O)NC(=O)NC1=O | inactive; no positive results
69 | C#C[C@]1(OC(C)=O)CC[C@H]2[C@@H]3CCC4=C[C@@H](OC(C)=O)CC[C@@H]4[C@H]3CC[C@@]21C | inactive
70 | S=c1nc[nH]c2nc[nH]c12 | inactive; no positive results
71 | CC(C)NCC(O)COc1cccc2ccccc12 (stereo unspecified) | inactive; no positive results
72 | CC(C)(C)NC[C@H](O)COc1cccc2c1CCCC2=O | inactive; no positive results
73 | COc1cc(/C=C/C(=O)CC(=O)/C=C/c2ccc(O)c(OC)c2)ccc1O | inactive; no positive results
74 | CN[C@@H](C)[C@H](O)c1ccccc1 | inactive; no positive results

same assay, conditions: TD50_Rat_Note: positive test results only by intraperitoneal or intravenous injection; TD50 is harmonic mean of more than one positive; TargetSites_Rat_Female: mammary gland; stronger effect = lower value

Row | Compound | Potency [mg/kg/day]
75 | COc1ccc(C(=O)/C(Br)=C\C(=O)O)cc1 | 2.77

same assay, conditions: TD50_Rat_Note: positive test results only by intraperitoneal or intravenous injection; stronger effect = lower value

Row | Compound | Potency [mg/kg/day]
76 | C/C=C(\C)C(=O)O[C@@H]1CCN2CC=C(COC(=O)C(O)(C(C)C)C(C)O)[C@H]12 (stereo partly specified) | 1.91

same assay, conditions: TargetSites_Rat_Female: clitoral gland; stronger effect = lower value

Row | Compound | Potency [mg/kg/day]
77 | O=C(O)c1ccc([N+](=O)[O-])cc1 | 287

same assay, conditions: TargetSites_Rat_Female: esophagus; liver; stronger effect = lower value

Row | Compound | Potency [mg/kg/day]
78 | C=CCN(CC(C)=O)N=O | 0.335

same assay, conditions: TargetSites_Rat_Female: esophagus; liver; oral cavity; stronger effect = lower value

Row | Compound | Potency [mg/kg/day]
79 | CC1SC(C)N(N=O)C(C)S1 (stereo unspecified) | 0.483

same assay, conditions: TargetSites_Rat_Female: esophagus; oral cavity; stronger effect = lower value

Row | Compound | Potency [mg/kg/day]
80 | CCCCCN(N=O)C(=O)OCC | 1.01

same assay, conditions: TargetSites_Rat_Female: liver; stronger effect = lower value

Row | Compound | Potency [mg/kg/day]
81 | O=NN(CCO)CC(O)CO (stereo unspecified) | 5.98

same assay, conditions: TargetSites_Rat_Female: lung; mammary gland; small intestine; stomach; stronger effect = lower value

Row | Compound | Potency [mg/kg/day]
82 | CN(C)CNc1nnc(/C=C/c2ccc([N+](=O)[O-])o2)o1 | 22.4

same assay, conditions: TargetSites_Rat_Female: mammary gland; stronger effect = lower value

Row | Compound | Potency [mg/kg/day]
83 | COc1ccc2c(c1)c(CC(=O)O)c(C)n2C(=O)c1ccc(Cl)cc1 | 1.15

same assay, conditions: TargetSites_Rat_Female: no positive results; stronger effect = lower value

Row | Compound | Potency [mg/kg/day]
84 | CC/C(C)=N/O | 74.5
85 | CC(=O)Nc1ccc(N=Nc2cc(C)ccc2O)cc1 | 380
86 | [Cl-].[Cl-].[Hg+2] | 3.12

same assay, conditions: TargetSites_Rat_Female: pancreas; stronger effect = lower value

Row | Compound | Potency [mg/kg/day]
87 | O=[N+]([O-])c1ccc(Oc2ccc(Cl)cc2Cl)cc1 | 420

same assay, conditions: stronger effect = lower value

Row | Compound | Potency [mg/kg/day]
88 | CCCCCCCCCCCN(C)N=O | 2.37
89 | CCCCCCCCCCN(C)N=O | 1.26
90 | Cc1ccccc1N=O | 50.7
91 | CC(=O)OC1CC(C)OC(C)O1 (stereo unspecified) | 716
